Assay results published in article PMC8151329, “Modulation of γ-Secretase Activity by a Carborane-Based Flurbiprofen Analogue” (Molecules, 2021).
Where two headings read alike, the source gives them in different places.

Tests used:
[1] = molecular target: T1, ovine COX-1 (Ovis aries, UniProt P05979); experiment: COX Fluorescent Inhibitor Screening Assay Kit, COX-1; type: biochemical
T1 construct: purchased Cayman Chemical Company 700100
T1 sequence (P05979 25-600): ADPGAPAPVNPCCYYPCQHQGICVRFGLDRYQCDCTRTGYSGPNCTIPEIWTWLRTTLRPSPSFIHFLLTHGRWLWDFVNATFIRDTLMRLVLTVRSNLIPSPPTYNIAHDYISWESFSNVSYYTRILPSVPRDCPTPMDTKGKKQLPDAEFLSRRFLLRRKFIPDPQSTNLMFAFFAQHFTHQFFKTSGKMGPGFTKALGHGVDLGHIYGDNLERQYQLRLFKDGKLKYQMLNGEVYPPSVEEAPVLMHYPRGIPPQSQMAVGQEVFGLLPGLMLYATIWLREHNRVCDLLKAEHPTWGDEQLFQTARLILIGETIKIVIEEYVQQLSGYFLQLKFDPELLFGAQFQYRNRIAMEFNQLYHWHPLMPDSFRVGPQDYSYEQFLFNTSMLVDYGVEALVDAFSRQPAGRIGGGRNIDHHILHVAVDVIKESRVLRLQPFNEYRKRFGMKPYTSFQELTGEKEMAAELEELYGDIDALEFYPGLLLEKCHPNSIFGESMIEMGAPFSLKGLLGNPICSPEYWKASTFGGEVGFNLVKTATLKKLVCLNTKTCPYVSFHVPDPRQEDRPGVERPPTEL
Method: In this work, 100 µM arachidonic acid was applied according to the manufacturer’s instructions for the “COX Fluorescent Inhibitor Screening Assay Kit”.

[2] = tested on: HT29; experiment: MTT cytotoxicity test HT29; type: cell-based, human; conditions: HT29, 48 h, up to 100 µM, mean ± SD
Method: (§1) The used human tumour (i.e., melanoma A375, colon cancer HCT116 and HT29, and glioblastoma LN229 and U251) and rodent tumour (i.e., mouse melanoma B16 and B16–F10; rat glioma C6) cell lines as well as murine transformed non-malignant fibroblast cell line NIH/3T3 differed in their rates of COX-1 and COX-2 expression.
(§2) Cytotoxicity was determined by conducting MTT and CV assays using cell viability as an indicator [67]. All measurements were carried out in triplicates.

[3] = molecular target: T2, human COX-2 (Homo sapiens, UniProt P35354); experiment: COX Fluorescent Inhibitor Screening Assay Kit, COX-2; type: biochemical
T2 construct: purchased Cayman Chemical Company 700100
T2 sequence (P35354 18-604): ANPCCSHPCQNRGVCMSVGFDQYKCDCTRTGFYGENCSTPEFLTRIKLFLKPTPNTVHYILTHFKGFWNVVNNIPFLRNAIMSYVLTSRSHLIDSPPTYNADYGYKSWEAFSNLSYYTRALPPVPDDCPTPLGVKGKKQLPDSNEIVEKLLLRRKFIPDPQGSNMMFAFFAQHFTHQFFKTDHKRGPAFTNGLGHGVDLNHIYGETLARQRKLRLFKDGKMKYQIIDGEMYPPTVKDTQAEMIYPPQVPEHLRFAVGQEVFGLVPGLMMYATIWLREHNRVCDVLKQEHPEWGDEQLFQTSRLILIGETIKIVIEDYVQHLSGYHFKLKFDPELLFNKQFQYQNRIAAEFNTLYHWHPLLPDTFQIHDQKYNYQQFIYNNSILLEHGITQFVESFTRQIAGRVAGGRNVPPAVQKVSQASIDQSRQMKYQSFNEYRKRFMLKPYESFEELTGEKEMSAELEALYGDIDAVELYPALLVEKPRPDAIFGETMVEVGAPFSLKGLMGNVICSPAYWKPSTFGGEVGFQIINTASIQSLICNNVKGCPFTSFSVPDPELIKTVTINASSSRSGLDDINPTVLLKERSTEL

[4] = tested on: LN229; experiment: MTT cytotoxicity test LN229; type: cell-based, human; conditions: LN229, 48 h, up to 100 µM, mean ± SD
Method: as §1, §2

[5] = tested on: U251; experiment: MTT cytotoxicity test U251; type: cell-based, human; conditions: U251, 48 h, up to 100 µM, mean ± SD
Method: as §1, §2

[6] = tested on: A375; experiment: MTT cytotoxicity test A375; type: cell-based, human; conditions: A375, 48 h, up to 100 µM, mean ± SD
Method: as §1, §2

[7] = tested on: B16; experiment: MTT cytotoxicity test B16; type: cell-based, mouse; conditions: B16, 48 h, up to 100 µM, mean ± SD
Method: as §1, §2

[8] = tested on: NIH/3T3; experiment: MTT cytotoxicity test NIH/3T3; type: cell-based, mouse; conditions: NIH/3T3, 48 h, up to 100 µM, mean ± SD
Method: as §1, §2

[9] = logD7.4 by HPLC method; type: physicochemical; conditions: pH 7.4
From the text: The measured variances in logD7.4 measurements between the two compounds and the two methods lie in the typical range of the method, and both compounds can be seen as equally hydrophobic. This confirms that the replacement of a phenyl ring with a carborane moiety indeed increased the hydrophobicity and could therefore result in an increased BBB penetration of compound 5 compared to flurbiprofen.
In both cases, the eluent consisted of methanol and a 0.01 M phosphate buffer (pH = 7.4); the applied gradient was 0 min at 70% methanol, 10 min at 100% methanol, 20 min at 100% methanol at a flow rate of 0.6 mL/min.

[10] = tested on: HCT116; experiment: MTT cytotoxicity test HCT116; type: cell-based, human; conditions: HCT116, 48 h, up to 100 µM, mean ± SD
Method: as §1, §2

[11] = tested on: B16–F10; experiment: MTT cytotoxicity test B16–F10; type: cell-based, mouse; conditions: B16–F10, 48 h, up to 100 µM, mean ± SD
Method: as §1, §2

[12] = tested on: C6; experiment: MTT cytotoxicity test C6; type: cell-based, rat; conditions: C6, 48 h, up to 100 µM, mean ± SD
Method: as §1, §2

[13] = molecular target: T3, γ-secretase (Homo sapiens, UniProt P49768); type: cell-based; conditions: HEK/sw cells
T3 construct: endogenous in cells; host or cells: HEK293 cells stably overexpressing Swedish-mutant APP (HEK/sw)
Method: The γ-secretase modulator (GSM) activity of compound 5 was tested on human embryonic kidney (HEK) 293 cells stably overexpressing ”Swedish mutant” APP (HEK/sw), a well-established cell culture model to assess GSM activity. The effect of compound 5 on Aβ production was analysed in comparison to flurbiprofen over a relevant and cell tolerable concentration range (Figure 1).
Nearly confluent (80%) HEK/sw cells were treated with the indicated concentrations of compound 5 or flurbiprofen ((±)-2-fluoro-α-methyl-4-biphenylacetic acid; F8514, Sigma–Aldrich, St. Louis, MO, USA) as described before. Cells treated with DMSO or 1 µM GSM-1 were used as negative and positive controls, respectively. After overnight treatment, the conditioned medium was collected, cleared by centrifugation (10 min, 4 °C, 16,000× g), and the levels of secreted Aβ38, Aβ40, and Aβ42 were analysed using an established Aβ species-specific sandwich immunoassay purchase from Meso Scale Discovery (MSD, Rockville, MD, USA).

[14] = set-up: method as in PMID 25513709; conditions: shake flask; cited from earlier work
[15] = enzyme-based assay, result in words

Row | inhibitory activity on COX-1 [1, 15] | IC50 ([1]; ovine COX-1, fluorescence kit, 100 µM arachidonic acid, read-out: IC50 inhibition of COX-1) [µM] | inhibitory activity on COX-2 [3, 15] | IC50 ([3]; human COX-2, fluorescence kit, 100 µM arachidonic acid, read-out: IC50 inhibition of COX-2) [µM] | logD7.4 ([9]; HPLC method 1: Chromolith Speed ROD RP-18E 50) | logD7.4 ([9]; HPLC method 2 (standard conditions): Asahipak ODP-50 4B 4.6 × 50) | sum of all measured Aβ species (Aβ38, Aβ40 and Aβ42) vs DMSO control ([13]; 150 µM) | effect on Aβ42:Aβ40 ratio ([13]; extracellular Aβ) | ratio of short Aβ38 to longer Aβ42 (γ-secretase processivity) ([13]; overnight treatment) | effect on Aβ42 (ratio of total Aβ) ([13]; overnight treatment, conditioned medium) | Compound | IC50 [2] [µM] | IC50 [4] [µM] | IC50 [5] [µM] | IC50 [6] [µM] | IC50 [7] [µM] | IC50 [8] [µM] | IC50 [10] [µM] | IC50 [11] [µM] | IC50 [12] [µM] | logD7.4 [14]
1 | No inhibitory activity | > 100 | No inhibitory activity | > 100 | 2.00 | 1.86 | did not decrease significantly | lowering | increased | clear dose-dependent decrease | 2-[4-(1,7-Dicarba-closo-dodecaboran-9-yl(12))phenyl]propionic acid [Compound 5] | > 100 | 95 ± 7.1 | 77.5 ± 7.2 | 96 ± 5.9 | 79 ± 2.4 | 90 ± 10 | > 100 | 74.7 ± 0.9 | 92.8 ± 4.8 | 
2 |  |  |  |  |  |  |  |  |  |  | CC(C(=O)O)c1ccc(-c2ccccc2)c(F)c1 (racemic) [Flurbiprofen, (±)-2-fluoro-α-methyl-4-biphenylacetic acid] |  |  |  |  |  |  |  |  |  | 0.91
